According to patent US12441719B2, “Inhibitors of SARM1” (Disarm Therapeutics, Inc., priority 2019, dated 2025):
Read-outs that look alike come from different tables or passages of the source.

Biological target: T1, SARM1 (Homo sapiens, UniProt Q6SZW1)
T1 construct: AviTag […]; made in house; host or cells: NRK1-HEK293T cells, transiently transfected; the clarified sonicated lysate was used without purification
T1 sequence (Q6SZW1 with tags, fused parts or gaps): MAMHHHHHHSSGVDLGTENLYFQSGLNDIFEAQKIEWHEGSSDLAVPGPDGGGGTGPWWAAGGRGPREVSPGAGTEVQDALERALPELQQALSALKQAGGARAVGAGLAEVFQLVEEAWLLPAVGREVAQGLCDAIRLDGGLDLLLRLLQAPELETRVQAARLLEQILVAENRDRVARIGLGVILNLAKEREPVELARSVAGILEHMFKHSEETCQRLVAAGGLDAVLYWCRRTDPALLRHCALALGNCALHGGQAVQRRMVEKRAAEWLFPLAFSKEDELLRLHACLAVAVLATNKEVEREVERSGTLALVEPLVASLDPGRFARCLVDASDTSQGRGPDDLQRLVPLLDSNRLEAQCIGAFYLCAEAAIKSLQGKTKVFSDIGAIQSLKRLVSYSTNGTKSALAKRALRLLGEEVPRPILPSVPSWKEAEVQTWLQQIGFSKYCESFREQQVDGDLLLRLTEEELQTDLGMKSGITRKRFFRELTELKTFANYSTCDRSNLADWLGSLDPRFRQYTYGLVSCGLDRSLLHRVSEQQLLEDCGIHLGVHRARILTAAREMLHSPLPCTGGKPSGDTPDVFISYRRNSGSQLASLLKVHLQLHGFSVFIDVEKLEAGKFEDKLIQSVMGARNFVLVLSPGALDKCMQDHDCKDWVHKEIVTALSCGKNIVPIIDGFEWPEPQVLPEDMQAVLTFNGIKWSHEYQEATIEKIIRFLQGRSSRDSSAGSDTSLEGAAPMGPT
Assay: ARM-SAM-TIR SARM1 IC50 assay (NADase activity, NAD+ cleavage)
Format: biochemical
Excerpt: This Example describes an assay of ARM-SAM-TTR NADase activity and use of this assay to measure the efficacy of compounds of Formula I or Formula II to block SARM1 mediated NAD+ cleavage. This assay is optimized in such a way as to characterize the efficacy of the compounds in Formula I or Formula II to inhibit SARM1 activity and to calculate an IC50 value for each compound. This assay makes use of full length SARI, which encompasses the ARM, SAM and TTR domains.
Preparation of ARM-SAM-TIR Lysate (STL)
NRK1-HEK293T cells were seeded onto 150 cm^2 plates at 20×10^6 cells per plate. The next day, the cells were transfected with 15 μg ARM-SAM-TIR expression plasmid, SEQ ID NO: 1.
The cultures were supplemented with 1 mM NR at time of transfection to minimize toxicity from ARM-SAM-TIR overexpression. Forty-eight hours after transfection, cells were harvested, pelleted by centrifugation at 1,000 rpm (Sorvall ST 16R centrifuge, Thermo Fisher), and washed once with cold PBS (0.01 M phosphate buffered saline NaCl 0.138 M; KCl 0.0027 M; pH 7.4). The cells were resuspended in PBS with protease inhibitors (cOmplete™ protease inhibitor cocktail, Roche product #11873580001) and cell lysates were prepared by sonication (Branson Sonifer 450, output=3, 20 episodes of stroke). The lysates were centrifuged (12,000×g for 10 min at 4° C.) to remove cell debris and the supernatants (containing ARM-SAM-TIR protein) were stored at −80° C. for later use in the in vitro ARM-SAM-TIR NADase assay (see below). Protein concentration was determined by the Bicinchoninic (BCA) method and used to normalize lysate concentrations.
ARM-SAM-TIR IC50 Assay of Formula I or Formula II Compounds.
The enzymatic assay was performed in a 384-well polypropylene plate in Dulbecco's PBS buffer in a final assay volume of 20 μL. ARM-SAM-TIR lysate with a final concentration of 5 μg/mL was pre-incubated with the respective compound at 1% DMSO final assay concentration over 2 h at room temperature. The reaction was initiated by addition of 5 μM final assay concentration of NAD+ as substrate. After a 2 hr room temperature incubation, the reaction was terminated with 40 μL of stop solution of 7.5% trichloroactetic acid in acetonitrile. The NAD+ and ADPR concentrations were analyzed by a RapidFire High Throughput Mass Spectrometry System (Agilent Technologies, Santa Clara, CA) using an API4000 triple quadrupole mass spectrometer (AB Sciex Framingham, MA).

[1] = ARM-SAM-TIR lysate 5 μg/mL from NRK1-HEK293T cells, 2 h pre-incubation with compound, 5 μM NAD+, 2 hr room temperature, NAD+ and ADPR by RapidFire mass spectrometry, read-out: SARM1 IC50

Compound	IC50 [1]	IC50
N#Cc1cc(N2CCC(NCCO)CC2)nc2ccc(Cl)cc12 [Example 1]	5 to 15 µM	
OCCNC1CCN(c2ccc3cc(Cl)ccc3n2)CC1 [Example 2]	> 30 µM	
N#Cc1cc(N2CCC(N)CC2)nc2ccc(Cl)cc12 [Example 3]	5 to 15 µM	
N#Cc1cc(N2CCCCC2)nc2ccc(Cl)cc12 [Example 4]	< 5 µM	
CN(C)c1cc(C#N)c2cc(Cl)ccc2n1 [Example 5]	< 5 µM	
NC(=O)c1cc(N2CCC(NCCO)CC2)nc2ccc(Cl)cc12 [Example 6]	> 30 µM	
N#Cc1cc(N2CCC(NCCO)CC2)nc2ccccc12 [Example 8]	> 30 µM	
Cc1cc(N2CCC(NCCO)CC2)nc2ccc(Cl)cc12 [Example 9]	> 30 µM	
N#Cc1cc(N2CCCC2)nc2ccc(Cl)cc12 [Example 10]	< 5 µM	
N#Cc1cc(N2CC[C@@H](O)C2)nc2ccc(Cl)cc12 [Example 11]	< 5 µM	
N#Cc1cc(N2CC[C@H](O)C2)nc2ccc(Cl)cc12 [Example 12]	< 5 µM	
N#Cc1cc(NCC2CC2)nc2ccc(Cl)cc12 [Example 13]	< 5 µM	
COc1cc(C#N)c2cc(Cl)ccc2n1 [Example 14]	< 5 µM	
N#Cc1cc(Cl)nc2ccc(Cl)cc12 [Example 15]	> 30 µM	
N#Cc1cc(N2CCNCC2)nc2ccc(Cl)cc12 [Example 16]		> 30 µM
Cc1ccc2nc(N3CCC(N)CC3)cc(C#N)c2c1 [Example 17]	5 to 15 µM	
Cc1ccc2nc(N3CCCCC3)cc(C#N)c2c1 [Example 18]	5 to 15 µM	
Cc1ccc2nc(N(C)C)cc(C#N)c2c1 [Example 19]	< 5 µM	
N#Cc1cc(N2CCC(N)CC2)nc2ccc(Br)cc12 [Example 20]	< 5 µM	
N#Cc1cc(N2CCCCC2)nc2ccc(Br)cc12 [Example 21]	< 5 µM	
CN(C)c1cc(C#N)c2cc(Br)ccc2n1 [Example 22]	< 5 µM	
N#Cc1cc(N2CCC(N)CC2)nc2ccc(F)cc12 [Example 23]	> 30 µM	
N#Cc1cc(N2CCCCC2)nc2ccc(F)cc12 [Example 24]	< 5 µM	
CN(C)c1cc(C#N)c2cc(F)ccc2n1 [Example 25]	5 to 15 µM	
N#Cc1cc(N2CCCCC2)nc2cc(Cl)ccc12 [Example 26]	< 5 µM	

Compound	IC50 [1]	IC50
CN(C)c1cc(C#N)c2ccc(Cl)cc2n1 [Example 27]	< 5 µM	
Cc1cnc(CNc2cc(C#N)c3cc(Cl)ccc3n2)o1 [Example 28]	> 30 µM	
COCCNC(=O)CNc1cc(C#N)c2cc(Cl)ccc2n1 [Example 29]	15 to 30 µM	
N#Cc1cc(NCC(O)c2ccco2)nc2ccc(Cl)cc12 (centres unmarked) [Example 30]	5 to 15 µM	
N#Cc1cc(NC2CCCCNC2=O)nc2ccc(Cl)cc12 (centres unmarked) [Example 31]	< 5 µM	
Cn1c(CNc2cc(C#N)c3cc(Cl)ccc3n2)nc2cccnc21 [Example 32]	> 30 µM	
N#Cc1cc(NC(CCO)C2CCOCC2)nc2ccc(Cl)cc12 (centres unmarked) [Example 33]	5 to 15 µM	
N#Cc1cc(N2CC(CO)C2)nc2ccc(Cl)cc12 [Example 34]	5 to 15 µM	
CC(=O)N1CCN(c2cc(C#N)c3cc(Cl)ccc3n2)CC1 [Example 35]	< 5 µM	
CC1CC(CNc2cc(C#N)c3cc(Cl)ccc3n2)CCO1 (centres unmarked) [Example 36]	< 5 µM	
N#Cc1cc(NC2CCCN(C(N)=O)C2)nc2ccc(Cl)cc12 (centres unmarked) [Example 37]	< 5 µM	
CC(O)CNc1cc(C#N)c2cc(Cl)ccc2n1 (centres unmarked) [Example 38]	15 to 30 µM	
CNC(=O)C(CO)Nc1cc(C#N)c2cc(Cl)ccc2n1 (centres unmarked) [Example 39]	> 30 µM	
N#Cc1cc(N2CCCC(CCC(N)=O)C2)nc2ccc(Cl)cc12 (centres unmarked) [Example 40]	< 5 µM	
CN(C)C(=O)NCCNc1cc(C#N)c2cc(Cl)ccc2n1 [Example 41]	15 to 30 µM	
N#Cc1cc(NCc2ccccn2)nc2ccc(Cl)cc12 [Example 42]	< 5 µM	
N#Cc1cc(N2CCN(c3ncc[nH]3)CC2)nc2ccc(Cl)cc12 [Example 43]	15 to 30 µM	
N#Cc1cc(NC2CCN(Cc3cccnc3)CC2)nc2ccc(Cl)cc12 [Example 44]	< 5 µM	
N#Cc1cc(NCc2cccc(C(N)=O)c2)nc2ccc(Cl)cc12 [Example 45]	< 5 µM	
CN1CCC(Nc2cc(C#N)c3cc(Cl)ccc3n2)C1=O (centres unmarked) [Example 46]	< 5 µM	
CS(=O)(=O)C1CCN(c2cc(C#N)c3cc(Cl)ccc3n2)C1 (centres unmarked) [Example 47]	< 5 µM	
CO[C@@H]1CCN(c2cc(C#N)c3cc(Cl)ccc3n2)C1 [Example 48]	< 5 µM	
CO[C@H]1CCN(c2cc(C#N)c3cc(Cl)ccc3n2)C1 [Example 49]	< 5 µM	
CNc1cc(C#N)c2cc(Cl)ccc2n1 [Example 50]	< 5 µM	
N#Cc1cc(NC2CC2)nc2ccc(Cl)cc12 [Example 51]	> 30 µM	

Compound	IC50 [1]	IC50
CN1CCN(c2cc(C#N)c3cc(Cl)ccc3n2)CC1 [Example 52]	> 30 µM	
CCN1CCN(c2cc(C#N)c3cc(Cl)ccc3n2)CC1 [Example 53]	> 30 µM	
COC1CCN(c2cc(C#N)c3cc(Cl)ccc3n2)CC1 [Example 54]	< 5 µM	
CS(=O)(=O)C1CCN(c2cc(C#N)c3cc(Cl)ccc3n2)CC1 [Example 55]	5 to 15 µM	
N#Cc1cc(N2CCC(C(N)=O)CC2)nc2ccc(Cl)cc12 [Example 56]	5 to 15 µM	
CNC(=O)C1CCN(c2cc(C#N)c3cc(Cl)ccc3n2)CC1 [Example 57]	< 5 µM	
N#Cc1cc(N2CCC[C@H](N)C2)nc2ccc(Cl)cc12 [Example 58]	< 5 µM	
CS(=O)(=O)C1CCCN(c2cc(C#N)c3cc(Cl)ccc3n2)C1 (centres unmarked) [Example 59]	< 5 µM	
CO[C@@H]1CCCN(c2cc(C#N)c3cc(Cl)ccc3n2)C1 [Example 60]	< 5 µM	
CO[C@H]1CCCN(c2cc(C#N)c3cc(Cl)ccc3n2)C1 [Example 61]	< 5 µM	
C[C@@H]1CCCN(c2cc(C#N)c3cc(Cl)ccc3n2)C1 [Example 62]	< 5 µM	
C[C@H]1CCCN(c2cc(C#N)c3cc(Cl)ccc3n2)C1 [Example 63]	< 5 µM	
N#Cc1cc(N2CCC(N)CC2)nc2cc(Cl)ccc12 [Example 64]	< 5 µM	
N#Cc1cc(N2CC[C@@H](N)C2)nc2ccc(Cl)cc12 [Example 65]	< 5 µM	
N#Cc1cc(N2CC[C@H](N)C2)nc2ccc(Cl)cc12 [Example 66]	< 5 µM	
N#Cc1cc(N2CCC(C(N)=O)C2)nc2ccc(Cl)cc12 (centres unmarked) [Example 67]	< 5 µM	
CNC(=O)C1CCN(c2cc(C#N)c3cc(Cl)ccc3n2)C1 (centres unmarked) [Example 68]	5 to 15 µM	
CN(C)C(=O)C1CCN(c2cc(C#N)c3cc(Cl)ccc3n2)C1 (centres unmarked) [Example 69]	< 5 µM	
N#Cc1cc(N)nc2ccc(Cl)cc12 [Example 70]	15 to 30 µM	
N#Cc1cc(N2CCCC2)nc2cc(F)c(Cl)cc12 [Example 71]	< 5 µM	
N#Cc1cc(N2C3CNCC2C3)nc2ccc(Cl)cc12 [Example 72]		< 5 µM
N#Cc1cc(N2CC3CC(C2)N3)nc2ccc(Cl)cc12 [Example 73]		< 5 µM
N#Cc1cc(N2CC3CCC2CN3)nc2ccc(Cl)cc12 (centres unmarked) [Example 74]		< 5 µM
N#Cc1cc(N2CCC(O)CC2)nc2ccc(Cl)cc12 [Example 75]	< 5 µM	
